# Data taken from PubChem BioAssay (NCI).
#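 48-hour exposure; five concentrations; linearly interpolated endpoints. At the TGI there is no net growth.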
# Key:
# Test in all cases: inhibition of tumour cell growth, NCI panel, 48 h
# MALME-3M melanoma = tested on: MALME-3M melanoma
# PC-3 prostate = tested on: PC-3 prostate
# HL-60(TB) leukemia = tested on: HL-60(TB) leukemia
# MDA-MB-435 = tested on: MDA-MB-435
# U251 CNS = tested on: U251 CNS
# MCF7 breast = tested on: MCF7 breast
# HS 578T breast = tested on: HS 578T breast
# COLO 205 colon = tested on: COLO 205 colon
# CAKI-1 renal = tested on: CAKI-1 renal
# SNB-19 CNS = tested on: SNB-19 CNS
# IGROV1 ovarian = tested on: IGROV1 ovarian
Compound,TGI (MALME-3M melanoma),TGI (PC-3 prostate),TGI (HL-60(TB) leukemia),TGI (MDA-MB-435),TGI (U251 CNS),TGI (MCF7 breast),TGI (HS 578T breast),TGI (COLO 205 colon),TGI (CAKI-1 renal),TGI (SNB-19 CNS),TGI (IGROV1 ovarian)
N#Cc1c(Nc2nc3ccccc3s2)c2ccccc2n2c1nc1ccccc12,> 100 µM,> 100 µM,> 100 µM,> 100 µM,> 100 µM,> 100 µM,> 100 µM,> 100 µM,> 100 µM,> 100 µM,> 100 µM
Cc1cc(O)ccc1C1(c2ccc(F)cc2)OC(=O)c2ccccc21 (stereo unspecified),26.8 µM,5.28 µM,> 72.2 µM,26.9 µM,> 49.9 µM,4.38 µM,2.41 µM,11.2 µM,15.3 µM,15.4 µM,10.2 µM
CCOC(=O)/C(C#N)=C(/NNc1ccccc1)c1ccncc1C(=O)O,> 100 µM,> 100 µM,> 100 µM,> 100 µM,> 100 µM,> 100 µM,> 100 µM,22.5 µM,> 100 µM,> 100 µM,> 100 µM
S=C(N/N=C\c1ccccn1)N(Cc1ccccn1)Cc1ccccn1,16.9 µM,32.9 µM,> 100 µM,41.8 µM,> 40 µM,> 100 µM,> 74.4 µM,23.9 µM,14.6 µM,21.9 µM,11.2 µM
C=C(Br)CNCC(=C)Br,> 100 µM,> 100 µM,> 100 µM,> 100 µM,> 100 µM,> 100 µM,> 100 µM,> 100 µM,> 100 µM,> 100 µM,> 100 µM
OC(CCN1CCN(CCOC(c2ccccc2)c2ccccc2)CC1)c1ccc(Br)cc1 (stereo unspecified),24.4 µM,23 µM,28.8 µM,27 µM,25.1 µM,31.8 µM,42.8 µM,3.38 µM,26.9 µM,30.3 µM,24.7 µM
CC(C)(C)OC(=O)NCC(=O)NC1C/C(=N\O)c2sccc21 (stereo unspecified),> 100 µM,> 100 µM,> 100 µM,> 100 µM,> 100 µM,> 100 µM,> 100 µM,> 100 µM,> 100 µM,> 100 µM,> 100 µM
O=C1NC2CCCCC2N=C1/C(C(=O)c1ccccc1)=C(\O)c1ccccc1 (stereo unspecified),> 100 µM,> 100 µM,> 100 µM,> 100 µM,> 100 µM,> 100 µM,> 100 µM,> 100 µM,> 100 µM,> 100 µM,> 100 µM
CC1(C)CCCCCCCCCC(C)(CCCCCCCCCCCCO)C1=O (stereo unspecified),30.6 µM,32.6 µM,38.3 µM,33 µM,33 µM,30.5 µM,38 µM,62.7 µM,41.5 µM,26.1 µM,33.7 µM
COc1cc(/C=C2\Cc3cc(OC)c(OC)cc3C2=O)cc(OC)c1,> 100 µM,> 100 µM,> 100 µM,> 100 µM,> 100 µM,> 100 µM,> 100 µM,> 100 µM,> 100 µM,> 100 µM,> 100 µM
COc1ccc(/C(=N/Nc2nc3ccccc3[nH]2)C(=O)O)cc1,> 100 µM,> 100 µM,> 100 µM,> 100 µM,> 100 µM,> 100 µM,> 100 µM,> 100 µM,> 100 µM,> 100 µM,> 100 µM
Oc1nc(N/N=C/c2ccccc2)[nH]c1/C=C1\C=Nc2ccccc21,> 100 µM,> 100 µM,> 100 µM,> 100 µM,51.3 µM,> 100 µM,> 100 µM,> 100 µM,> 100 µM,> 100 µM,> 100 µM
O=C(/C=C(\O)c1ccccc1)/C(=C/C(=O)c1ccccc1)NN=C(c1ccccc1)c1ccccc1,> 100 µM,> 100 µM,6.8 µM,> 100 µM,> 100 µM,> 100 µM,> 100 µM,> 100 µM,> 100 µM,> 100 µM,> 100 µM
COc1ccc2c(c1)CC1Cc3ccccc3CCN1C2 (stereo unspecified),> 100 µM,> 100 µM,> 100 µM,> 100 µM,> 100 µM,> 100 µM,> 100 µM,> 100 µM,59.1 µM,> 100 µM,> 100 µM
N#CC12C(=O)N3C(=NC(c4ccccc4)NC3c3ccccc3)C1(C#N)C(c1ccccc1)NC1=C2CCCC1 (stereo unspecified),> 100 µM,> 100 µM,> 100 µM,> 100 µM,> 100 µM,> 100 µM,> 100 µM,> 100 µM,> 100 µM,> 100 µM,> 100 µM
ONC1=Nc2ccccc2OCc2cc(Br)c(Br)cc2COc2ccccc2N=C1NO,42.1 µM,31.3 µM,25 µM,> 54.3 µM,41.8 µM,> 44.7 µM,> 69.8 µM,21.5 µM,29.3 µM,24.2 µM,> 37.7 µM
CC(C)(C)c1cc(C(=O)/C=C/c2ccn[nH]2)cc(C(C)(C)C)c1O,20.2 µM,5.18 µM,5.64 µM,8.34 µM,3.11 µM,4.78 µM,9.22 µM,4.98 µM,6.98 µM,9.91 µM,3.97 µM
CNC(=S)N/N=C(\C)c1nc2ncccc2[nH]1,> 100 µM,> 100 µM,52.8 µM,> 100 µM,> 100 µM,> 100 µM,> 84.3 µM,> 100 µM,99.1 µM,> 100 µM,> 100 µM
CC(NNC(=O)c1ccncc1)c1ccc(Cl)c(Cl)c1 (stereo unspecified),> 100 µM,> 100 µM,> 100 µM,> 100 µM,> 100 µM,> 100 µM,> 100 µM,> 100 µM,> 100 µM,> 100 µM,> 100 µM
COc1cc(/C=N\NC(=O)C[N+](C)(C)C)cc(OC)c1OC,> 10 µM,> 10 µM,> 10 µM,> 10 µM,> 10 µM,> 10 µM,> 10 µM,> 10 µM,> 10 µM,> 10 µM,> 10 µM
CN(CCc1ccc(Cl)c(Cl)c1)CCN(C)CCN1CCCC1,15 µM,39.7 µM,31.7 µM,4.5 µM,24.4 µM,26.3 µM,46.3 µM,5.3 µM,32.1 µM,43.3 µM,43.7 µM
c1csc(-c2csc(-c3ccsc3)c2)c1,> 100 µM,> 100 µM,> 100 µM,> 100 µM,> 100 µM,> 71.4 µM,> 100 µM,> 100 µM,> 100 µM,> 100 µM,> 100 µM
O=C1c2ccccc2-c2nc(-c3ccccc3)cc3c2c1nc1ccccc13,12.8 µM,32.3 µM,15 µM,3.51 µM,39.6 µM,21.9 µM,63.9 µM,65.3 µM,74.9 µM,52.9 µM,23 µM
N#CC1(c2ccccc2)CCN(C2(c3ccccc3)CCCCC2)CC1,> 100 µM,> 100 µM,> 100 µM,> 100 µM,> 100 µM,> 100 µM,> 100 µM,> 100 µM,> 100 µM,> 100 µM,> 100 µM
O=c1[nH]c2cc3cccnc3c(Cl)c2nc1CBr,65.5 µM,37.4 µM,55.2 µM,34.8 µM,32.4 µM,29.2 µM,28.3 µM,26.8 µM,31.9 µM,19.7 µM,12.3 µM
COc1cc2c(cc1C)NC(=O)/C2=C\c1ccncc1,32.1 µM,> 100 µM,> 100 µM,20 µM,18.6 µM,11.4 µM,8.1 µM,> 100 µM,16.5 µM,21.6 µM,6.94 µM
